Experimental data published in ChEMBL document CHEMBL3045956, “Bioisosteric synthesis of nitrogen containing derivatives of salicyl alcohol, their in vivo pharmacological studies with molecular modeling” (2013).
Activity calls are given as the source filed them. The rule behind the calls is not given here.

How the values were obtained:
Mus musculus [1] = test: Analgesic activity in Balb/c albino Mus musculus (mouse) assessed as protection against acetic acid-induced writhing at 15 to 45 mg/kg measured up to 20 min relative to control; type: functional; settings: dose mg/kg 15-45
Mus musculus [2] = test: Anti-inflammatory activity in Balb/c albino Mus musculus (mouse) assessed as inhibition of carrageenan-induced paw edema at 50 to 150 mg/kg at 5 hr relative to control; type: functional, organism-based
Mus musculus [3] = test: Antinociceptive activity in Balb/c albino Mus musculus (mouse) assessed as latency time on hot plate at 15 to 45 mg/kg up to 60 min by hot-plate method relative to control; type: functional, organism-based
Mus musculus [4] = test: Anti-inflammatory activity in Balb/c albino Mus musculus (mouse) assessed as inhibition of carrageenan-induced paw edema at 50 to 150 mg/kg at 1 hr relative to control; type: functional, organism-based
Mus musculus [5] = test: Antipyretic activity in Balb/c albino Mus musculus (mouse) assessed as decrease in Brewer's yeast-induced rectal temperature at 50 to 150 mg/kg, ip measured up to 1.5 hr relative to control; type: functional, organism-based
Mus musculus [6] = test: Anti-inflammatory activity in Balb/c albino Mus musculus (mouse) assessed as inhibition of carrageenan-induced paw edema at 50 to 150 mg/kg up to 5 hr relative to control; type: functional, organism-based
Mus musculus [7] = test: Antipyretic activity in Balb/c albino Mus musculus (mouse) assessed as Brewer's yeast-induced rectal temperature at 50 to 150 mg/kg, ip measured after 3 hr (reference value: 38.7 degC); type: functional; settings: dose mg/kg 50-150; route intraperitoneal

Cl.NC(=O)C1CCN(Cc2ccccc2O)CC1
Activity (Mus musculus [1]): 67.34% | inhibition (Mus musculus [2]): Active | Activity (Mus musculus [3]): inactive | inhibition (Mus musculus [4]): Active | inhibition (Mus musculus [5]): Active | inhibition (Mus musculus [6]): Active | T (Mus musculus [7]): 37.2 °C

Cl.Oc1ccccc1CN1CCCCC1
Activity (Mus musculus [1]): 67.62% | inhibition (Mus musculus [2]): Active | Activity (Mus musculus [3]): inactive | inhibition (Mus musculus [4]): Active | inhibition (Mus musculus [5]): Active | T (Mus musculus [7]): 37.7 °C

CC(=O)Oc1ccccc1C(=O)O [ASPIRIN]
Activity (Mus musculus [1]): 78.38%
